In patent US8207172B2 (Bayer Intellectual Property GmbH, priority 2004, dated 2012):
Where a name gives a salt, the structure may show the parent alone.

Assays:
[1] = tested on: A431 cells (human epidermoid carcinoma); assay: In vitro tumor cell proliferation assay (Cell Titer-Glo luminescent cell viability), A431; type: cell-based; details: A-431, 72 h, 72 hours of drug exposure, ATP luminescence readout, read-out: IC50, anti-proliferative activity (inhibition of cell proliferation)
Procedure, shortened: (§1)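 Proliferation inhibition was measured as ATP-dependent luciferase signal after cells in RPMI with 10% FBS received test compound for 72 h at 37° C. Final concentrations spanned […] to 64 pM in 0.1% DMSO; IC50 values were derived.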

[2] = tested on: BT474 (human breast carcinoma); assay: In vitro tumor cell proliferation assay (Cell Titer-Glo luminescent cell viability), BT474; type: cell-based; details: BT-474, 72 h, BT474 cells, 72 hours of drug exposure, ATP luminescence readout, read-out: IC50, anti-proliferative activity (inhibition of cell proliferation)
Procedure, shortened: as §1

Row | IC50 [1] | IC50 [2] | SMILES
1 | ≤ 50000 nM | ≤ 1000 nM | COCCN(C)CCn1ncc2c1CCc1c-2sc2ncnc(Nc3ccc(OCc4cccc(F)c4)c(Cl)c3)c12 [Example 261, N-{3-chloro-4-[(3-fluorobenzyl)oxy]phenyl}-3-{2-[(2-methoxyethyl)(methyl)amino]ethyl}-4,5-dihydro-3H-pyrimido[5′,4′:4,5]thieno[2,3-e]indazol-6-amine]
2 | ≤ 50000 nM | ≤ 1000 nM | OCCN(CCO)CCn1ncc2c1CCc1c-2sc2ncnc(Nc3ccc(OCc4cccc(F)c4)c(Cl)c3)c12 [Example 262, 2,2′-({2-[6-({3-chloro-4-[(3-fluorobenzyl)oxy]phenyl}amino)-4,5-dihydro-3H-pyrimido[5′,4′:4,5]thieno[2,3-e]indazol-3-yl]ethyl}imino)diethanol]
3 | ≤ 50000 nM | ≤ 1000 nM | Fc1cccc(COc2ccc(Nc3ncnc4sc5c(c34)CCc3c-5cnn3CCN3CCN(Cc4ccncc4)CC3)cc2Cl)c1 [Example 263, N-{3-chloro-4-[(3-fluorobenzyl)oxy]phenyl}-3-{2-[4-(pyridin-4-ylmethyl)piperazin-1-yl]ethyl}-4,5-dihydro-3H-pyrimido[5′,4′:4,5]thieno[2,3-e]indazol-6-amine]
4 | ≤ 50000 nM | ≤ 1000 nM | OCCNCCn1ncc2c1CCc1c-2sc2ncnc(Nc3ccc(OCc4cccc(F)c4)c(Cl)c3)c12 [Example 264, 2-({2-[6-({3-chloro-4-[(3-fluorobenzyl)oxy]phenyl}amino)-4,5-dihydro-3H-pyrimido[5′,4′:4,5]thieno[2,3-e]indazol-3-yl]ethyl}amino)ethanol]
5 | ≤ 50000 nM | ≤ 1000 nM | COCCN1CCN(CCn2ncc3c2CCc2c-3sc3ncnc(Nc4ccc(OCc5cccc(F)c5)c(Cl)c4)c23)CC1 [Example 265, N-{3-chloro-4-[(3-fluorobenzyl)oxy]phenyl}-3-{2-[4-(2-methoxyethyl)piperazin-1-yl]ethyl}-4,5-dihydro-3H-pyrimido[5′,4′:4,5]thieno[2,3-e]indazol-6-amine trifluoroacetate]
6 | ≤ 5000 nM | ≤ 1000 nM | Fc1cccc(COc2ccc(Nc3ncnc4sc5c(c34)CCc3c-5cnn3CCN3CCCCC3)cc2Cl)c1 [Example 266, trifluoroacetate]
7 | ≤ 5000 nM | ≤ 1000 nM | CN(C)C1CCN(CCn2ncc3c2CCc2c-3sc3ncnc(Nc4ccc(OCc5cccc(F)c5)c(Cl)c4)c23)C1 (centres unmarked) [Example 267, N-{3-chloro-4-[(3-fluorobenzyl)oxy]phenyl}-3-{2-[3-(dimethylamino)pyrrolidin-1-yl]ethyl}-4,5-dihydro-3H-pyrimido[5′,4′:4,5]thieno[2,3-e]indazol-6-amine trifluoroacetate]
8 | ≤ 50000 nM | ≤ 1000 nM | OCCCn1ncc2c1CCc1c-2sc2ncnc(Nc3ccc(OCc4cccc(F)c4)c(Cl)c3)c12 [Example 268, 3-[6-({3-chloro-4-[(3-fluorobenzyl)oxy]phenyl}amino)-4,5-dihydro-3H-pyrimido[5′,4′:4,5]thieno[2,3-e]indazol-3-yl]propan-1-ol]
9 | ≤ 5000 nM | ≤ 1000 nM | CN1CCN(CCCn2ncc3c2CCc2c-3sc3ncnc(Nc4ccc(OCc5cccc(F)c5)c(Cl)c4)c23)CC1 [Example 269, N-{3-chloro-4-[(3-fluorobenzyl)oxy]phenyl}-3-[3-(4-methylpiperazin-1-yl)propyl]-4,5-dihydro-3H-pyrimido[5′,4′:4,5]thieno[2,3-e]indazol-6-amine]
10 | ≤ 50000 nM | ≤ 1000 nM | COCCN(C)CCCn1ncc2c1CCc1c-2sc2ncnc(Nc3ccc(OCc4cccc(F)c4)c(Cl)c3)c12 [Example 270, N-{3-chloro-4-[(3-fluorobenzyl)oxy]phenyl}-3-{3-[(2-methoxyethyl)(methyl)amino]propyl}-4,5-dihydro-3H-pyrimido[5′,4′:4,5]thieno[2,3-e]indazol-6-amine]
11 | ≤ 50000 nM | ≤ 1000 nM | Fc1cccc(COc2ccc(Nc3ncnc4sc5c(c34)CCc3c-5cnn3CCCN3CCOCC3)cc2Cl)c1 [Example 271, N-{3-chloro-4-[(3-fluorobenzyl)oxy]phenyl}-3-(3-morpholin-4-ylpropyl)-4,5-dihydro-3H-pyrimido[5′,4′:4,5]thieno[2,3-e]indazol-6-amine]
12 | ≤ 5000 nM | ≤ 1000 nM | Fc1cccc(COc2ccc(Nc3ncnc4sc5c(c34)CCc3c-5cnn3CCCN3CCCC3)cc2Cl)c1 [Example 272]
13 | ≤ 5000 nM | ≤ 1000 nM | Fc1cccc(COc2ccc(Nc3ncnc4sc5c(c34)CCc3c-5cnn3CCCN3CCCCC3)cc2Cl)c1 [Example 273]
14 | ≤ 5000 nM | ≤ 1000 nM | OCCn1cc2c(n1)CCc1c-2sc2ncnc(Nc3ccc4c(cnn4Cc4cccc(F)c4)c3)c12 [Example 275, 2-(6-{[1-(3-fluorobenzyl)-1H-indazol-5-yl]amino}-4,5-dihydro-2H-pyrimido[5′,4′:4,5]thieno[2,3-e]indazol-2-yl)ethanol]
15 | ≤ 5000 nM | ≤ 1000 nM | CS(=O)(=O)OCCn1cc2c(n1)CCc1c-2sc2ncnc(Nc3ccc4c(cnn4Cc4cccc(F)c4)c3)c12 [Example 276, 2-(6-{[1-(3-fluorobenzyl)-1H-indazol-5-yl]amino}-4,5-dihydro-2H-pyrimido[5′,4′:4,5]thieno[2,3-e]indazol-2-yl)ethyl methanesulfonate]
16 | ≤ 5000 nM | ≤ 1000 nM | CN1CCN(CCn2cc3c(n2)CCc2c-3sc3ncnc(Nc4ccc5c(cnn5Cc5cccc(F)c5)c4)c23)CC1 [Example 277]
17 | ≤ 5000 nM | ≤ 1000 nM | Fc1cccc(Cn2ncc3cc(Nc4ncnc5sc6c(c45)CCc4nn(CCN5CCOCC5)cc4-6)ccc32)c1 [Example 278, N-[1-(3-fluorobenzyl)-1H-indazol-5-yl]-2-(2-morpholin-4-ylethyl)-4,5-dihydro-2H-pyrimido[5′,4′:4,5]thieno[2,3-e]indazol-6-amine]
18 | ≤ 5000 nM | ≤ 1000 nM | Fc1cccc(Cn2ncc3cc(Nc4ncnc5sc6c(c45)CCc4nn(CCn5ccnc5)cc4-6)ccc32)c1 [Example 279, N-[1-(3-fluorobenzyl)-1H-indazol-5-yl]-2-[2-(1H-imidazol-1-yl)ethyl]-4,5-dihydro-2H-pyrimido[5′,4′:4,5]thieno[2,3-e]indazol-6-amine]
19 | ≤ 5000 nM | ≤ 1000 nM | COCCNCCn1cc2c(n1)CCc1c-2sc2ncnc(Nc3ccc4c(cnn4Cc4cccc(F)c4)c3)c12 [Example 280, N-[1-(3-fluorobenzyl)-1H-indazol-5-yl]-2-{2-[(2-methoxyethyl)amino]ethyl}-4,5-dihydro-2H-pyrimido[5′,4′:4,5]thieno[2,3-e]indazol-6-amine]
20 | ≤ 5000 nM | ≤ 1000 nM | OCCNCCn1cc2c(n1)CCc1c-2sc2ncnc(Nc3ccc4c(cnn4Cc4cccc(F)c4)c3)c12 [Example 281, 2-{[2-(6-{[1-(3-fluorobenzyl)-1H-indazol-5-yl]amino}-4,5-dihydro-2H-pyrimido[5′,4′:4,5]thieno[2,3-e]indazol-2-yl)ethyl]amino}ethanol]
21 | ≤ 5000 nM | ≤ 1000 nM | CN(C)C1CCN(CCn2cc3c(n2)CCc2c-3sc3ncnc(Nc4ccc5c(cnn5Cc5cccc(F)c5)c4)c23)C1 (centres unmarked) [Example 282, 2-{2-[3-(dimethylamino)pyrrolidin-1-yl]ethyl}-N-[1-(3-fluorobenzyl)-1H-indazol-5-yl]-4,5-dihydro-2H-pyrimido[5′,4′:4,5]thieno[2,3-e]indazol-6-amine]
22 | ≤ 5000 nM | ≤ 1000 nM | CCN1CCN(CCn2cc3c(n2)CCc2c-3sc3ncnc(Nc4ccc5c(cnn5Cc5cccc(F)c5)c4)c23)CC1 [Example 283, 2-[2-(4-ethylpiperazin-1-yl)ethyl]-N-[1-(3-fluorobenzyl)-1H-indazol-5-yl]-4,5-dihydro-2H-pyrimido[5′,4′:4,5]thieno[2,3-e]indazol-6-amine]
23 | ≤ 5000 nM | ≤ 1000 nM | Fc1cccc(Cn2ncc3cc(Nc4ncnc5sc6c(c45)CCc4nn(CCN5CCNCC5)cc4-6)ccc32)c1 [Example 284, N-[1-(3-fluorobenzyl)-1H-indazol-5-yl]-2-(2-piperazin-1-ylethyl)-4,5-dihydro-2H-pyrimido[5′,4′:4,5]thieno[2,3-e]indazol-6-amine]
24 | ≤ 5000 nM | ≤ 1000 nM | COCCN(CCOC)CCn1cc2c(n1)CCc1c-2sc2ncnc(Nc3ccc4c(cnn4Cc4cccc(F)c4)c3)c12 [Example 285, 2-{2-[bis(2-methoxyethyl)amino]ethyl}-N-[1-(3-fluorobenzyl)-1H-indazol-5-yl]-4,5-dihydro-2H-pyrimido[5′,4′:4,5]thieno[2,3-e]indazol-6-amine]
25 | ≤ 5000 nM | ≤ 1000 nM | OC1CCN(CCn2cc3c(n2)CCc2c-3sc3ncnc(Nc4ccc5c(cnn5Cc5cccc(F)c5)c4)c23)C1 (centres unmarked) [Example 286, 1-[2-(6-{[1-(3-fluorobenzyl)-1H-indazol-5-yl]amino}-4,5-dihydro-2H-pyrimido[5′,4′:4,5]thieno[2,3-e]indazol-2-yl)ethyl]pyrrolidin-3-ol]
26 | ≤ 5000 nM | ≤ 1000 nM | Fc1cccc(Cn2ncc3cc(Nc4ncnc5sc6c(c45)CCc4n[nH]cc4-6)ccc32)c1 [Example 288, N-[1-(3-fluorobenzyl)-1H-indazol-5-yl]-4,5-dihydro-2H-pyrimido[5′,4′:4,5]thieno[2,3-e]indazol-6-amine]
27 | ≤ 5000 nM | ≤ 1000 nM | OCCn1ncc2c1CCc1c-2sc2ncnc(Nc3ccc4c(cnn4Cc4cccc(F)c4)c3)c12 [Example 289, 2-(6-{[1-(3-fluorobenzyl)-1H-indazol-5-yl]amino}-4,5-dihydro-3H-pyrimido[5′,4′:4,5]thieno[2,3-e]indazol-3-yl)ethanol]
28 | ≤ 5000 nM | ≤ 1000 nM | CS(=O)(=O)OCCn1ncc2c1CCc1c-2sc2ncnc(Nc3ccc4c(cnn4Cc4cccc(F)c4)c3)c12 [Example 290, 2-(6-{[1-(3-fluorobenzyl)-1H-indazol-5-yl]amino}-4,5-dihydro-3H-pyrimido[5′,4′:4,5]thieno[2,3-e]indazol-3-yl)ethyl methanesulfonate]
